In PubChem BioAssay (NCI):
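Cells were grown in 96-well plates and exposed to each compound for 48 hours at five concentrations; endpoints were interpolated linearly between bracketing concentrations, or set to the highest concentration if not reached. TGI is the concentration that stops growth completely.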 Where a SMILES comes first, the peptide text is derived from it. [ ]: non-standard residue; d: D form. The star is where a group is joined. ξ: configuration not given here. ξNMeF = CNC(Cc1ccccc1)C(=O)O; NMeV = CN[C@H](C(=O)O)C(C)C; Boc = CC(C)(C)OC(=O)*; OBn = c1ccc(CO*)cc1

Columns and labels:
Experiment in all cases: NCI tumour cell line growth inhibition, 48 h
[1] = test system: SK-OV-3 ovarian
[2] = test system: SF-268 CNS
[3] = test system: LOX IMVI melanoma
[4] = test system: TK-10 renal
[5] = test system: BT-549 breast
[6] = test system: SNB-75 CNS
[7] = test system: MOLT-4 leukemia
[8] = test system: UACC-62 melanoma
[9] = test system: UO-31 renal
[10] = test system: SF-539 CNS
[11] = test system: EKVX NSCLC
[12] = test system: NCI-H522 lung
[13] = test system: NCI-H23 lung
[14] = test system: HT29 colon
[15] = test system: SR leukemia
[16] = test system: OVCAR-3 ovarian
[17] = test system: MALME-3M melanoma
[18] = test system: NCI/ADR-RES ovarian

| Compound | TGI [1] | TGI [2] | TGI [3] | TGI [4] | TGI [5] | TGI [6] | TGI [7] | TGI [8] | TGI [9] | TGI [10] | TGI [11] | TGI [12] | TGI [13] | TGI [14] | TGI [15] | TGI [16] | TGI [17] | TGI [18] |
| --- | --- | --- | --- | --- | --- | --- | --- | --- | --- | --- | --- | --- | --- | --- | --- | --- | --- | --- |
| C/C=C/c1cc2c(cc1O)CC[C@@H]1[C@@H]2CC[C@]2(C)[C@@H](O)CC[C@@H]12 | 15.3 µM | 21.5 µM | 24.3 µM | 27.3 µM | 22.8 µM | 3.48 µM | 15.8 µM | 15.4 µM | 18.5 µM | 0.15 µM | 24.7 µM | 0.117 µM | 4.62 µM | 20.4 µM | > 19.6 µM | 2.24 µM | 23.1 µM | – |
| CNc1cc([N+](=O)[O-])ccc1C(=O)N1CCC[C@H]1CO | > 100 µM | > 100 µM | > 100 µM | > 100 µM | – | > 100 µM | > 100 µM | > 100 µM | > 100 µM | > 100 µM | > 100 µM | > 100 µM | – | > 100 µM | > 100 µM | > 100 µM | – | > 100 µM |
| CCN(CC)C(=O)CCn1cc(F)c(=O)[nH]c1=O | – | > 100 µM | > 100 µM | > 100 µM | – | > 100 µM | > 100 µM | > 100 µM | > 100 µM | > 100 µM | > 100 µM | > 100 µM | > 100 µM | > 100 µM | > 100 µM | > 100 µM | > 100 µM | – |
| S=C1NC2=C(CSC/C2=C\c2ccc(Cl)cc2)C(c2ccc(Cl)cc2)N1 (centres undefined) | > 100 µM | > 100 µM | > 100 µM | > 100 µM | – | – | > 100 µM | > 100 µM | > 100 µM | – | > 100 µM | > 100 µM | > 100 µM | > 100 µM | > 100 µM | > 100 µM | 71.3 µM | > 100 µM |
| CC(C)[C@@H](C(=O)N(C)[C@H](C(=O)N1CCC[C@H]1C(=O)OCc1ccccc1)C(C)C)N(C)C(=O)C(Cc1ccccc1)N(C)C(=O)[C@H](NC(=O)OC(C)(C)C)C(C)C (some centres undefined) (Boc-[dV][ξNMeF][NMeV][NMeV]P-OBn) | > 31.6 µM | > 31.6 µM | > 31.6 µM | > 31.6 µM | – | > 100 µM | > 31.6 µM | > 31.6 µM | > 31.6 µM | > 31.6 µM | > 31.6 µM | > 100 µM | > 100 µM | > 31.6 µM | > 31.6 µM | > 67.2 µM | > 100 µM | – |
| C=C(C)[C@H]1CC[C@@]23O[C@@H]2[C@@H](C[C@@]2(C)CC(=O)[C@H](CC(=O)C1)O2)OC(=O)[C@@]12CC[C@H](C(=C)C)CC(=O)C[C@H]4O[C@](C)(CC4=O)C[C@@H](OC3=O)[C@@H]1O2 | > 100 µM | – | > 100 µM | > 100 µM | – | > 100 µM | > 100 µM | > 100 µM | > 100 µM | > 100 µM | > 100 µM | > 100 µM | > 100 µM | > 100 µM | – | > 100 µM | > 100 µM | > 100 µM |
| C=C1CC(OC)(C(OC)C(=O)N[C@H]2OCO[C@H]3C2O[C@H](C[C@@H](COC)OC)C(C)(C)C3OC)O[C@H](C)[C@@H]1C (some centres undefined) | 8.12 µM | – | > 47 µM | – | – | 9.99 µM | 1.88 µM | 3.72 µM | 5.71 µM | 2.85 µM | – | – | 6.68 µM | 5.49 µM | – | 2.96 µM | – | > 47 µM |
| COc1ccc2c(c1)CCc1c-2[nH]c2cc3c(cc2c1=O)OCO3 | > 100 µM | – | > 100 µM | > 100 µM | – | > 100 µM | > 100 µM | > 100 µM | > 100 µM | > 100 µM | > 100 µM | > 100 µM | > 100 µM | > 100 µM | > 100 µM | – | > 100 µM | – |
| CNC(=O)C(C)Oc1ccc(OCC2CCCCC2)cc1 (centres undefined) | > 100 µM | > 100 µM | > 100 µM | > 100 µM | – | > 100 µM | > 100 µM | > 100 µM | > 100 µM | > 100 µM | – | > 100 µM | > 100 µM | > 100 µM | – | > 100 µM | > 100 µM | – |
| CC(=O)[O-].CC(=O)[O-].O=C(N/N=C/c1cc(Cl)cc(Cl)c1[OH2+])c1ccncc1.[Mn+2] | 51.1 µM | 27.2 µM | 15.2 µM | 27.3 µM | – | 30.2 µM | 0.84 µM | 5.54 µM | 18.6 µM | 13.4 µM | 7.76 µM | 14.8 µM | 21.9 µM | 31.6 µM | 4.4 µM | 0.956 µM | 18 µM | – |
| Cc1cc(=O)oc2c1cc1ccc3cccc4ccc2c1c34 | > 100 µM | > 100 µM | > 100 µM | > 100 µM | – | 98.4 µM | > 100 µM | > 100 µM | > 100 µM | > 100 µM | > 100 µM | > 100 µM | > 100 µM | > 100 µM | – | > 100 µM | > 100 µM | – |
| C=C(COCO)C(C)=O | > 100 µM | 38 µM | 31.7 µM | 26.9 µM | – | 30.5 µM | 6.08 µM | 32.3 µM | 25.7 µM | 13.6 µM | 46.9 µM | 3.75 µM | 35.4 µM | 35 µM | – | 26.6 µM | 23.5 µM | 51.5 µM |
| CN(c1ccccc1)c1cc2ccccc2nn1 | > 100 µM | > 100 µM | > 100 µM | > 100 µM | – | > 100 µM | > 100 µM | > 100 µM | > 100 µM | > 100 µM | > 100 µM | > 100 µM | > 100 µM | > 100 µM | > 100 µM | > 100 µM | > 100 µM | – |
| Nc1nc(SCC(=O)c2ccccc2)c2[nH]cnc2n1 | > 100 µM | > 100 µM | > 100 µM | > 100 µM | – | 82.6 µM | > 100 µM | > 100 µM | – | > 100 µM | – | > 100 µM | > 100 µM | > 100 µM | > 100 µM | > 100 µM | > 100 µM | – |
